Laboratory results: patent US12721349B2, “Method for promoting bacterial cell wall degradation” (KABUSHIKI KAISHA YAKULT HONSHA, priority 2019, dated 2026)
Converted amounts (≈) assume the structure as drawn. One block for each molecule: values may come before it.

How the values were obtained:
[1] = Solubility in water at room temperature; assay type: physicochemical; conditions: read-out: upper limit of the solubility in water
[2] = test system: Lactobacillus casei YIT 9029; test: Cell wall degradation of YIT 9029 by lysozyme and mutanolysin (recombinant) with added saccharide, turbidity OD615; assay type: cell-based; conditions: saccharide 0.5 M, 37° C.; for cell wall degradation-promoting effect / cell wall degradation-promoting effect after 1 hour of the reaction: FIG. 4; for cell wall degradation rate compared with the reaction in which no saccharide was added: up to 24 hours, FIG. 1
Protocol: Lactobacillus casei YIT 9029 (hereinafter, referred to as YIT 9029) was used. Thirty microliters of the pre-cultured bacterial solution of about 2×10^9 CFU/mL cultured in the MRS Broth was inoculated in 30 mL of the MRS Broth prepared in the above (2) and then cultured at 37° C. for 24 hours. […] The bacteria were suspended in a 5 mM Tris-maleate buffer solution (manufactured by Sigma-Aldrich Co.) (pH 6.4) of the same volume as that of the original bacterial solution, and 100 μg of lysozyme from chicken egg white lyophilized powder (manufactured by Sigma-Aldrich Co., hereinafter, referred to as lysozyme), which is egg white lysozyme, and 100 U of mutanolysin (recombinant) (manufactured by A&A Biotechnology) were added per 1 mL of the suspension. The reaction solution was treated at 37° C. for 24 hours. In addition, in order to examine the influence of the addition of a saccharide on cell wall degradation reaction, the same reaction was performed using a Tris-maleate buffer solution containing D-glucose or L-rhamnose at a final concentration of 0.5 M instead of the Tris-maleate buffer solution. Each reaction was performed in triplicate. The turbidity (OD615) of the bacterial suspension at 615 nm (maximal absorption wavelength; measurement wavelength range: 575-660 nm) was measured over time using a spectrophotometer PiCOSCOPE PAS-110 (manufactured by Ushio Inc.), and the degradation rate was calculated by the following equation (1). The degradation rate was shown by the mean±standard deviation of triplicate. Degradation rate=1−(OD615 after reaction/OD615 before reaction) (1). (6) Result […] Each reaction was performed in triplicate. The same reaction as in Example 1 was performed except that D-arabinose, L-arabinose, D-lyxose, L-lyxose, D-xylose, L-xylose, D-ribose, L-ribose, D-fucose, L-fucose, D-mannose, L-mannose, D-galactose, or D-fructose was added as the saccharide, and the cell wall degradation-promoting effect of each saccharide was examined. Each reaction was performed in triplicate. […] Each reaction was performed in triplicate.

[3] = test system: Lactobacillus casei YIT 9029; test: Cell wall degradation of YIT 9029 by mutanolysin (recombinant) alone with added saccharide, turbidity OD615; assay type: cell-based; conditions: 37° C.; for degradation-promoting effect, mutanolysin alone: 0.5, 1.0 or 1.5 M, FIG. 5B
Protocol: The bacteria were suspended in a 5 mM Tris-maleate buffer solution (manufactured by Sigma-Aldrich Co.) (pH 6.4) of the same volume as that of the original bacterial solution, and 100 μg of lysozyme from chicken egg white lyophilized powder (manufactured by Sigma-Aldrich Co., hereinafter, referred to as lysozyme), which is egg white lysozyme, and 100 U of mutanolysin (recombinant) (manufactured by A&A Biotechnology) were added per 1 mL of the suspension. The reaction solution was treated at 37° C. for 24 hours. In addition, in order to examine the influence of the addition of a saccharide on cell wall degradation reaction, the same reaction was performed using a Tris-maleate buffer solution containing D-glucose or L-rhamnose at a final concentration of 0.5 M instead of the Tris-maleate buffer solution. Each reaction was performed in triplicate. The turbidity (OD615) of the bacterial suspension at 615 nm (maximal absorption wavelength; measurement wavelength range: 575-660 nm) was measured over time using a spectrophotometer PiCOSCOPE PAS-110 (manufactured by Ushio Inc.), and the degradation rate was calculated by the following equation (1). The degradation rate was shown by the mean±standard deviation of triplicate. Degradation rate=1−(OD615 after reaction/OD615 before reaction) (1). (6) Result It was expected from Examples 1 to 4 that a saccharide such as D-arabinose increases the activity of mutanolysin to promote the degradation of cell wall. However, since a possibility that the saccharide increases the activity of lysozyme that has been added together cannot be excluded, the degradation rate when YIT 9029 was treated with mutanolysin or lysozyme alone was examined using some saccharides. […] Each reaction was performed without replicates. […] Each reaction was performed in triplicate.

[4] = test system: Lactobacillus casei YIT 9029; test: Cell wall degradation of YIT 9029 by lysozyme and mutanolysin (recombinant) with added saccharide, turbidity OD615; assay type: cell-based; conditions: for difference between the promotion effects of the D-form and the L-form: 0.1 M to 1.5 M; for difference between the promotion effects of the D-form and the L-form / concentration dependence of the degradation rate: FIG. 6; for concentration dependence of the degradation rate: concentration range of 0.1 M and 1.0 M
[5] = test system: Lactobacillus casei YIT 9029; test: Cell wall degradation of YIT 9029 by lysozyme alone with added saccharide, turbidity OD615; assay type: cell-based; conditions: 1.5 M, 37° C., FIG. 5A
Protocol: The bacteria were suspended in a 5 mM Tris-maleate buffer solution (manufactured by Sigma-Aldrich Co.) (pH 6.4) of the same volume as that of the original bacterial solution, and 100 μg of lysozyme from chicken egg white lyophilized powder (manufactured by Sigma-Aldrich Co., hereinafter, referred to as lysozyme), which is egg white lysozyme, and 100 U of mutanolysin (recombinant) (manufactured by A&A Biotechnology) were added per 1 mL of the suspension. The reaction solution was treated at 37° C. for 24 hours. In addition, in order to examine the influence of the addition of a saccharide on cell wall degradation reaction, the same reaction was performed using a Tris-maleate buffer solution containing D-glucose or L-rhamnose at a final concentration of 0.5 M instead of the Tris-maleate buffer solution. Each reaction was performed in triplicate. The turbidity (OD615) of the bacterial suspension at 615 nm (maximal absorption wavelength; measurement wavelength range: 575-660 nm) was measured over time using a spectrophotometer PiCOSCOPE PAS-110 (manufactured by Ushio Inc.), and the degradation rate was calculated by the following equation (1). The degradation rate was shown by the mean±standard deviation of triplicate. Degradation rate=1−(OD615 after reaction/OD615 before reaction) (1). […]

[6] = test system: Lactobacillus casei YIT 9029; test: Cell wall degradation of YIT 9029 by lysozyme and mutanolysin from Streptomyces globisporus ATCC 21553 with added saccharide, turbidity OD615; assay type: cell-based; conditions: 1.5 M, 37° C. or 50° C., mutanolysin from Streptomyces globisporus ATCC 21553, FIG. 3A
Protocol: The reaction solution was treated at 37° C. for 24 hours. In addition, in order to examine the influence of the addition of a saccharide on cell wall degradation reaction, the same […] buffer solution. Each reaction was performed in triplicate. The turbidity (OD615) of the bacterial suspension at 615 nm (maximal absorption wavelength; measurement wavelength range: 575-660 nm) was measured over time using a spectrophotometer PiCOSCOPE PAS-110 (manufactured by Ushio Inc.), and the degradation rate was calculated by the following equation (1). The degradation rate was shown by the mean±standard deviation of triplicate. Degradation rate=1−(OD615 after reaction/OD615 before reaction) (1). (6) Result […] Each reaction was performed without replicates.

solubility [1]: ~1500 mM (≈ 225 mg/mL)
Structure (SMILES): O=C[C@@H](O)[C@H](O)[C@H](O)CO [D-arabinose]
degradation rate after 1 hour of the reaction relative to the reaction in which no saccharide was added [2]: about 4 times
cell wall degradation-promoting effect [2]: showed the cell wall degradation-promoting effect
promotion of degradation, mutanolysin alone ([3]; 1.5 M, FIG. 5A): promoted the degradation
difference between the promotion effects of the D-form and the L-form ([4]; 37° C. or 50° C.): no difference
promotion of degradation, mutanolysin and lysozyme in combination ([4]; 1.5 M, 37° C., FIG. 5A): promoted the degradation
degradation rate after 1 hour ([4]; 1.5 M, 50° C., FIG. 7): 93%
concentration dependence of the degradation rate [4]: concentration dependence was observed
degradation rate at 50° C. compared with 37° C. ([4]; reaction for a short time, FIG. 7): higher
promotion of degradation, lysozyme alone [5]: did not show significant promotion of degradation

Structure (SMILES): O=C(CO)[C@@H](O)[C@H](O)[C@H](O)CO [D-fructose]
cell wall degradation-promoting effect after 1 hour of the reaction [2]: showed the cell wall degradation-promoting effect

Structure (SMILES): O=C[C@H](O)[C@@H](O)[C@H](O)[C@H](O)CO [D-glucose, reference compound]
cell wall degradation rate compared with the reaction in which no saccharide was added [2]: decrease in cell wall degradation rate

Structure (SMILES): O=C[C@@H](O)[C@@H](O)[C@H](O)CO [D-lyxose]
cell wall degradation-promoting effect [2]: showed the cell wall degradation-promoting effect

Structure (SMILES): O=C[C@H](O)[C@H](O)[C@H](O)CO [D-ribose]
cell wall degradation-promoting effect [2]: showed the cell wall degradation-promoting effect

Structure (SMILES): O=C[C@H](O)[C@@H](O)[C@H](O)CO [D-xylose]
cell wall degradation-promoting effect after 1 hour of the reaction [2]: showed the cell wall degradation-promoting effect

solubility [1]: ~1500 mM (≈ 225 mg/mL)
Structure (SMILES): O=C[C@H](O)[C@@H](O)[C@@H](O)CO [L-arabinose]
degradation rate after 1 hour of the reaction relative to the reaction in which no saccharide was added [2]: about 4 times
cell wall degradation-promoting effect [2]: showed the cell wall degradation-promoting effect
degradation-promoting effect, mutanolysin alone [3]: showed the degradation-promoting effect
difference between the promotion effects of the D-form and the L-form ([4]; 37° C. or 50° C.): no difference
concentration dependence of the degradation rate [4]: concentration dependence was observed

Structure (SMILES): C[C@H](O)[C@@H](O)[C@@H](O)[C@H](O)C=O [L-fucose]
degradation rate after 1 hour of the reaction relative to the reaction in which no saccharide was added [2]: about 3 times
cell wall degradation-promoting effect [2]: showed the cell wall degradation-promoting effect
degradation-promoting effect, mutanolysin alone [3]: showed the degradation-promoting effect

Structure (SMILES): O=C[C@H](O)[C@H](O)[C@@H](O)CO [L-lyxose]
cell wall degradation-promoting effect [2]: showed the cell wall degradation-promoting effect

Structure (SMILES): O=C[C@H](O)[C@H](O)[C@@H](O)[C@@H](O)CO [L-mannose]
cell wall degradation-promoting effect [2]: showed the cell wall degradation-promoting effect
degradation-promoting effect, mutanolysin alone [3]: showed the degradation-promoting effect

Structure (SMILES): C[C@H](O)[C@H](O)[C@@H](O)[C@@H](O)C=O [L-rhamnose]
cell wall degradation rate compared with the reaction in which no saccharide was added [2]: increase in cell wall degradation rate
degradation-promoting effect, mutanolysin alone [3]: showed the degradation-promoting effect
cell wall degradation rate compared with the reaction in which no saccharide was added [6]: increase in cell wall degradation rate
degradation rate with increasing concentrations of L-rhamnose ([4]; 0.5, 1.0, 1.5 M, 37° C. or 50° C., FIG. 2): increased with increasing concentrations
degradation rate after 24 hours of the reaction ([4]; 1.5 M, 37° C.): 0.97
cell wall degradation rate compared with the reaction in which no saccharide was added ([4]; 1.5 M, 37° C. or 50° C., mutanolysin (recombinant), FIG. 3B): increase in cell wall degradation rate
degradation rate after 5 hours of the reaction ([4]; 1.5 M, 37° C., rate = 1-(OD615 after/OD615 before)): 0.83
degradation rate after 24 hours of the reaction ([4]; 1.5 M, 50° C.): 0.87
degradation rate after 1 hour of the reaction ([4]; 1.5 M, 50° C., rate = 1-(OD615 after/OD615 before)): 0.69

Structure (SMILES): O=C[C@@H](O)[C@@H](O)[C@@H](O)CO [L-ribose]
cell wall degradation-promoting effect [2]: showed the cell wall degradation-promoting effect

Structure (SMILES): O=C[C@@H](O)[C@H](O)[C@@H](O)CO [L-xylose]
cell wall degradation-promoting effect [2]: showed the cell wall degradation-promoting effect
